One series deals with HCT-8. The series is described as follows: Antiproliferative activity against human HCT-8 cells assessed as inhibition of cell growth incubated for 96 hrs by CCK-8 assay. It counts as functional, cell-based. As to conditions: HCT-8, 96 h. In general terms: Tetrazolium dyes change colour on reduction, which living cells bring about.
In a further series the test system is HCT-29. In words: Antiproliferative activity against human HCT-29 cells assessed as inhibition of cell growth incubated for 96 hrs by CCK-8 assay. It counts as functional, cell-based. As to conditions: HCT-29, 96 h.
In the next series the test system is DLD-1. In words: Antiproliferative activity against human DLD-1 cells assessed as inhibition of cell growth incubated for 96 hrs by CCK-8 assay. The class given is functional, cell-based. As to conditions: DLD-1, 96 h.
Series [1] has as its system HeLa. The series is described as follows: Cytotoxicity against human HeLa cells incubated for 24 hrs by MTT reagent based microplate reader analysis. The class given is functional, cell-based.
Series [2] in a line: Cytotoxicity against mouse JB6 Cl 41-5a cells incubated for 24 hrs by MTT reagent based microplate reader analysis. It counts as toxicity, cell-based.
The subject of the next series is N2a. The series is described as follows: Cytotoxicity against mouse Neuro2a cells incubated for 24 hrs by MTT reagent based microplate reader analysis. The class given is functional, cell-based.
In series [3] the test system is A549. In words: Antiproliferative activity against human A549 cells assessed as inhibition of cell growth incubated for 72 hrs by MTT reagent based microplate reader assay. The class given is functional. Conditions: A549, 72 h.
A further series relates to SW872. In words: Antiproliferative activity against human SW872 cells assessed as inhibition of cell growth incubated for 72 hrs by MTT reagent based microplate reader assay. It counts as functional. Conditions: SW872, 72 h.
The nature of series [4]: Antiproliferative activity against human A875 cells assessed as inhibition of cell growth incubated for 72 hrs by MTT reagent based microplate reader assay. The class given is functional. As to conditions: A875, 72 h.
The test system of a further series is MDA-MB-468. In words: Cytotoxicity against human MDA-MB-468 cells assessed as reduction in cell growth incubated upto 72 hrs by MTT assay. Conditions: MDA-MB-468, 72 h. It counts as functional, cell-based.
For series [5], the system named is MCF7. The series is described as follows: Cytotoxicity against human MCF7 cells assessed as reduction in cell growth incubated upto 72 hrs by MTT assay. Conditions: MCF7, 72 h. The class given is functional, cell-based.
Series [6] has as its system HeLa. In words: Cytotoxicity against human HeLa cells incubated for 48 hrs by MTT reagent based spectrophotometric analysis. The class given is functional, cell-based.
Another series concerns Jurkat. In words: Cytotoxicity against human Jurkat cells incubated for 48 hrs by MTT reagent based spectrophotometric analysis. The class given is functional, cell-based.
In series [7] the test system is HepG2. In words: Cytotoxicity against human HepG2 cells assessed as inhibition of cell growth incubated for 72 hrs by MTT reagent based colorimetric assay. The class given is functional. Conditions: HepG2, 72 h.
Series [8] concerns RPMI-8226. The series is described as follows: Cytotoxicity against human RPMI-8226 cells assessed as inhibition of cell growth incubated for 72 hrs by MTT reagent based colorimetric assay. It counts as functional. Conditions: RPMI-8226, 72 h.
Series [9] concerns MCF7. In words: Cytotoxicity against human MCF7 cells assessed as inhibition of cell growth incubated for 72 hrs by MTT reagent based colorimetric assay. It counts as functional. As to conditions: MCF7, 72 h.
Series [10] is described as follows: Antiproliferative activity against human TT cells assessed as inhibition of cell growth incubated for 72 hrs by WST-1 assay. The class given is functional, cell-based.
In a further series the test system is U-937. The series is described as follows: Cytotoxicity against human U-937 cells assessed as reduction in cell viability incubated for 72 hrs by resazurin assay. Conditions: U-937, 72 h. It counts as functional, cell-based.
Series [11] relates to A549. The series is described as follows: Antiproliferative activity against human A549 cells incubated for 48 hrs by MTT assay. Conditions: A549, 48 h. The class given is functional, cell-based.
A further series relates to MDA-MB-231. The series is described as follows: Antiproliferative activity against human MDA-MB-231 cells incubated for 48 hrs by MTT assay. The class given is functional, cell-based. Conditions: MDA-MB-231, 48 h.
Series [12] has as its system HepG2. In words: Antiproliferative activity against human HepG2 cells incubated for 48 hrs by MTT assay. It counts as functional, cell-based. Conditions: HepG2, 48 h.
The subject of series [13] is HepG2. The series is described as follows: Cytotoxicity against human HepG2 cells assessed as reduction in cell viability incubated for 72 hrs by MTT assay. Conditions: HepG2, 72 h. It counts as functional, cell-based.
The subject of series [14] is MCF7. In words: Cytotoxicity against human MCF7 cells assessed as reduction in cell viability incubated for 72 hrs by MTT assay. The class given is functional, cell-based. As to conditions: MCF7, 72 h.
In series [15] the test system is RPMI-8226. In words: Cytotoxicity against human RPMI-8226 cells assessed as reduction in cell viability incubated for 72 hrs by MTT assay. It counts as functional, cell-based. Conditions: RPMI-8226, 72 h.

Each structure is given as a SMILES string. pIC50: −log10 of the molar value.

Take `COC(=O)C(CS[C@H](CC=C(C)C)C1=CC(=O)c2c(O)ccc(O)c2C1=O)NC(=O)c1cc(S(C)(=O)=O)ccc1OC` (some centres undefined): the pIC50 (in general, the IC50 on a negative log10 scale, so that one unit is a factor of ten) with HCT-8 is 5.67; with HCT-29, 5.45; with DLD-1 it was 5.00.

Regarding `O=C1C2=C(O[C@@H]3[C@@H](O)[C@@H](O)CO[C@H]3S2)C(=O)c2c(O)cccc21`, the figures for the pIC50 in the series on HeLa [1] and in the series on N2a were 6.40 and 5.85, respectively. Further, the IC50 – broadly, the point on the concentration scale where inhibition reaches its midpoint – at 24 h in [2] worked out at 700 nM.

With `CC(C)=CC[C@@H](OC(=O)/C=C\c1cccc(C(F)(F)F)c1)C1=CC(=O)c2c(O)ccc(O)c2C1=O`, the results for the pIC50 (in the series on A549 [3]; in the series with SW872; in series [4]) were 5.79, 6.16 and 6.19, respectively.

With `CC1=C(Cl)C(=O)c2c(O)cccc2C1=O`, the results for the pIC50 with MDA-MB-468 and in the series on MCF7 [5] were 6.22 and 5.70, respectively.

For the compound `COc1ccc(NC2=CC(=O)c3cc4c(cc3C2=O)CCCC4(C)C)cc1`, the pIC50 with HeLa [6] is 8.00; in the series with Jurkat, 5.85.

In the case of `C[P+](C1=C([O-])C(=O)c2c(F)c(F)c(F)c(F)c2C1=O)(c1ccccc1)c1cc(F)cc(F)c1` (centres undefined), the pIC50 in the series on HepG2 [7] is 5.15; in the series on RPMI-8226 [8], 5.19; in the series on MCF7 [9], 5.34.

For `CC(C)=CC[C@@H](OC(=O)C=C(C)C)C1=CC(=O)c2c(O)ccc(O)c2C1=O` [DIMETHYLACRYLSHIKONIN], the pIC50 in series [10] is 5.92.

For `CC(C)=CC[C@@H](OC(=O)C(C)C)C1=CC(=O)c2c(O)ccc(O)c2C1=O` [ISOBUTYLSHIKONIN], in the series with U-937, the pIC50 is 7.30.

With `CC1=C(CCNC(=O)c2ccccc2)C(=O)c2c(O)cccc2C1=O`, the pIC50 in the series on A549 [11] is 5.15; with MDA-MB-231, 5.22; with HepG2 [12], 5.14.

With `CCOC(=O)CCCCCNC1=C(F)C(=O)c2c(F)c(F)c(F)c(F)c2C1=O`, the pIC50 in the series on HepG2 [13] was 5.68; with MCF7 [14], 5.85; in the series on RPMI-8226 [15], 5.55.
